Experimental data taken from PMC10734298 (ACS Omega, 2023).
Read-outs that look alike come from different tables or passages of the source.

Assays:
[1] = tested on: A/Vladivostok/2/09 (H1N1); test: microbe, parasite or virus in culture; assay type: cell-based, influenza A virus; settings: for EC50: Influenza A virus, H1N1, MDCK
A/Almaty/8/98(H3N2) [2] = test: microbe, parasite or virus in culture; assay type: cell-based, influenza A virus; settings: for EC50: Influenza A virus, H3N2, MDCK
[3] = tested on: A/Tern/South Africa/1/61(H5N3); test: microbe, parasite or virus in culture; assay type: cell-based, influenza A virus; settings: for EC50: Influenza A virus, H5N3, MDCK
[4] = tested on: A/chicken/FPV/Rostock/1934(H7N1); assay type: cell-based, influenza A virus
[5] = tested on: A/Vladivostok/2/09 (H1N1); test: animal or person; assay type: in vivo; settings: Influenza A virus
A/Almaty/8/98(H3N2) [6] = test: animal or person; assay type: in vivo, influenza A virus; settings: for EC50: Influenza A virus, H3N2
[7] = tested on: A/Tern/South Africa/1/61(H5N3); test: animal or person; assay type: in vivo, influenza A virus; settings: for EC50: Influenza A virus, H5N3
[8] = tested on: A/chicken/FPV/Rostock/1934(H7N1); set-up: species or system influenza A virus; settings: in vivo
[9] = tested on: A/Vladivostok/2/09 (H1N1); set-up: species or system influenza A virus
A/Almaty/8/98(H3N2) [10] = tested on: A/Almaty/8/98(H3N2); set-up: species or system influenza A virus
[11] = tested on: A/Tern/South Africa/1/61 (H5N3); set-up: species or system influenza A virus
[12] = tested on: A/chicken/FPV/Rostock/1934 (H7N1); set-up: species or system influenza A virus
[13] = tested on: A/Vladivostok/2/09 (H1N1); assay type: biochemical, influenza A virus; settings: read-out: Hemagglutination Inhibition Concentration 50 (HIC50)
A/Almaty/8/98(H3N2) [14] = assay type: biochemical, influenza A virus; settings: read-out: Hemagglutination Inhibition Concentration 50 (HIC50)
[15] = tested on: A/Tern/South Africa/1/61 (H5N3); assay type: biochemical, influenza A virus; settings: read-out: Hemagglutination Inhibition Concentration 50 (HIC50)
[16] = tested on: A/chicken/FPV/Rostock/1934 (H7N1); assay type: biochemical, influenza A virus; settings: read-out: Hemagglutination Inhibition Concentration 50 (HIC50)
[17] = target: NA of A/Tern/South Africa/1/61 (H5N3) (Influenza A virus, UniProt Q6XV52); test: biochemical
NA of A/Tern/South Africa/1/61 (H5N3), sequence (Q6XV52 whole entry, looked up): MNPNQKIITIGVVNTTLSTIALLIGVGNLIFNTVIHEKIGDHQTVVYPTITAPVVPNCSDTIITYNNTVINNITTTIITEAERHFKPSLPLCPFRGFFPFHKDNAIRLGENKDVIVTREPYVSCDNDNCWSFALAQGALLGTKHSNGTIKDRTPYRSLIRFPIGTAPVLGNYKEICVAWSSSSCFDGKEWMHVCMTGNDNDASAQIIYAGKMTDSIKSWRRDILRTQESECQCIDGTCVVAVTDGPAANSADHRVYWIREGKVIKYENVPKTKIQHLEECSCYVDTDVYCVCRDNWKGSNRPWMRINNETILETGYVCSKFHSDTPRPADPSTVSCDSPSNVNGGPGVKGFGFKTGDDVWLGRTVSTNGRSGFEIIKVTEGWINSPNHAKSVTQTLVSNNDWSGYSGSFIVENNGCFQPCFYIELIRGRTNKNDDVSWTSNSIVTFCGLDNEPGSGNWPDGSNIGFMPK

[18] = target: NA of A/chicken/FPV/Rostock/1934 (H7N1) (Influenza A virus, UniProt Q64968); assay type: biochemical; settings: read-out: Neuraminidase Inhibition Concentration 50 (NIC50)
NA of A/chicken/FPV/Rostock/1934 (H7N1), sequence (Q64968 whole entry, looked up): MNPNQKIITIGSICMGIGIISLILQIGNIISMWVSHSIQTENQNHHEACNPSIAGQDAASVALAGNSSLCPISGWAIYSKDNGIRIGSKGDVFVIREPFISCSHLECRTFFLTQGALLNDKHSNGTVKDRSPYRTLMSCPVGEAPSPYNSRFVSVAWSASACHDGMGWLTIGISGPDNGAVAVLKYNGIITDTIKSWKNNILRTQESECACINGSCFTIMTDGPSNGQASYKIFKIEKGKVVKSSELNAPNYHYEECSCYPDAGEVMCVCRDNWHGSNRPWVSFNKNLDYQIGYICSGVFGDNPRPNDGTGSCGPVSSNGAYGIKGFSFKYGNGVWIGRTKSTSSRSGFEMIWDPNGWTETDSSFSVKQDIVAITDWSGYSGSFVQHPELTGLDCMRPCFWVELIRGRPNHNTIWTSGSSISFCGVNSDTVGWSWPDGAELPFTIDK

[19] = tested on: influenza virus (all tested viruses); test: microbe, parasite or virus in culture; assay type: cell-based, influenza A virus; settings: unidentified influenza virus, MDCK, read-out: EC50 value
Toxicity in MDCK cells = settings: dog
[20] = Toxicity in fertilized chicken eggs; settings: in vivo, other: inoculated into the allantoic cavity
[21] = tested on: NA protein of panel of viruses; test: NA inhibition assay, whole virus panel; assay type: biochemical, influenza A virus; settings: read-out: concentrations inhibiting the NA activity; range over panel viruses

| Compound | EC50 [1] [µM] | EC50 (A/Almaty/8/98(H3N2) [2]) [µM] | EC50 [3] [µM] | EC50 (A/Almaty/8/98(H3N2) [6]) [µM] | EC50 [7] [µM] | Virus Titer Reduction Factor (VTRF) [9] | Virus Titer Reduction Factor (VTRF) (A/Almaty/8/98(H3N2) [10]) | Virus Titer Reduction Factor (VTRF) [11] | Virus Titer Reduction Factor (VTRF) [12] | IC50 [13] [µM] | IC50 (A/Almaty/8/98(H3N2) [14]) [µM] | IC50 [15] [µM] | IC50 [16] [µM] | IC50 [17] [µM] | IC50 [18] [µM] | EC50 [19] [µM] | CC50 at 48 h (Toxicity in MDCK cells) [µM] | CC50 at 5 days [20] [µM] | further results |
| --- | --- | --- | --- | --- | --- | --- | --- | --- | --- | --- | --- | --- | --- | --- | --- | --- | --- | --- | --- |
| COc1cc(-c2oc3cc(O)cc(O)c3c(=O)c2O)ccc1O [isorhamnetin] | 56 ± 0.45 | 28 ± 0.34 | 35.4 ± 0.18 | 28 ± 0.34 | 35.4 ± 0.18 | 1.5 ± 0.02 | 1.5 ± 0.02 | 1.9 ± 0.02 | 1.5 ± 0.02 | 156 ± 2 | 50.5 ± 0.45 | 39.3 ± 0.7 | 48.2 ± 1.7 | 370 ± 7.5 | 68.2 ± 1.2 | 28 to 56 | > 280 | > 420 | SI [1]: >5.0; SI (A/Almaty/8/98(H3N2) [2]): >10.0; SI [3]: >7.9; SI [4]: >8.1; EC50 [5]: 56 ± 0.45 µM; SI (A/Almaty/8/98(H3N2) [6]; in vivo): >15; SI ([7]; in vivo): >12.0; SI [8]: >12.1 |
| CCOC(=O)C1=C[C@@H](OC(CC)CC)[C@H](NC(C)=O)[C@@H](N)C1 [oseltamivir] | 9.091 ± 0.04 | 1.33 ± 0.028 | 1.65 ± 0.027 | 1.33 ± 0.028 | 1.65 ± 0.027 | 1.0 ± 0.02 | 1.0 ± 0.02 | 1.0 ± 0.01 | 1.0 ± 0.02 | 155 ± 5.1 | 145 ± 6.6 | 155 ± 2 | 135 ± 6.6 | 20.3 ± 0.5 | 6.1 ± 0.2 | 1.3 to 9.1 | > 100 | > 150 | IC50 [21]: 4 to 20.3 µM |
